Laboratory results as given in US12454525B2, “IL4I1 inhibitors and methods of use” (Merck Sharp & Dohme LLC, priority 2020, dated 2025).

The compounds below were run against T1, recombinant IL4I1 (Homo sapiens, UniProt Q96RQ9) (assay: IL4I1 Enzymatic Assay (Amplex Red/HRP coupled H2O2 detection)). Conditions: 240 min; four-hour pre-incubation with compound; 1 nM IL4I1, 1 mM each Phe/Tyr/Trp; ten-point titration; fluorescence readout; read-out: Potency EC50 (nM) (240 min).
T1 construct: purchased R&D Systems 5684-AO-020
T1 sequence (Q96RQ9 22-567): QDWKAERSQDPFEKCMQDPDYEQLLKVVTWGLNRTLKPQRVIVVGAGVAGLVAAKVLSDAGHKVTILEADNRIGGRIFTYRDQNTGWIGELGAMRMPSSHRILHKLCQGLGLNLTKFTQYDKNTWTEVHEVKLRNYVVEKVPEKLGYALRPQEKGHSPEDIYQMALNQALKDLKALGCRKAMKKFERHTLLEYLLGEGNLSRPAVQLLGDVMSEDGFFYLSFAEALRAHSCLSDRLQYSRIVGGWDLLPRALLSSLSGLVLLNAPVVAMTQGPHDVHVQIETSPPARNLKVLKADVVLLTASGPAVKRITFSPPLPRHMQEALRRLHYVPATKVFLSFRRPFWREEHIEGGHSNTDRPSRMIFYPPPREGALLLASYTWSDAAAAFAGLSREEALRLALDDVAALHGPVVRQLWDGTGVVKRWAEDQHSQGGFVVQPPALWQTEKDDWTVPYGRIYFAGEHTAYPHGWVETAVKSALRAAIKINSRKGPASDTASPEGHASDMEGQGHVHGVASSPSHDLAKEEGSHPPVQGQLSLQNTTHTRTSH
Format: biochemical
Method: Interleukin 4 inducible protein 1 (IL4I1) is an L-amino oxidase that catalyzes the oxidation of aromatic residues (Phe, Trp and Tyr): L-amino acid+H2O+O2→2-oxo acid+NH3+H2O2. Equal molar of H2O2 and the corresponding alpha-ketoacid are produced when IL4I1 and substrate are added. In this assay, the hydrogen peroxide generated by IL4I1 is then detected through a coupled reaction with Amplex Red (10-acetyl-3,7-dihydroxyphenoxazine) and […] (HRP) to produce Resorufin product that could be detected in the form of fluorescence signals. The assessment of the inhibitory effect of small molecules (EC50) on IL4I1 is measured by the effectiveness of the compounds to inhibit the production of H2O2.
Using this assay, the potency (EC50) of each compound was determined from a ten-point (1:3 serial dilution) titration curve using the following outlined procedure. To each well of a black flat-bottom Greiner (Cat #781076) 384 well-plate, 25 nL of compound (0.1% DMSO in final assay volume of 25 μL) was dispensed, followed by the addition of 12.5 μL of 1x assay buffer (50 mM Hepes 7.0 and 0.005% Tween20 (Sigma, Cat #P8341; low peroxide grade)) containing 2 nM of recombinant IL4I1 (R&D Systems, Cat #5684-AO-020). Plates were placed in an ambient temperature humidified chamber for a four-hour pre-incubation with compound. Subsequently, each reaction was initiated by the addition of 12.5 μL 1x assay buffer containing 2 mM of each aromatic amino acids (Phe/Tyr/Trp), 0.1 mM Amplex Red and 2 U/mL of HRP. The final reaction in each well of 25 μL consists of 1 nM of IL411, 1 mM of each residues (Phe, Tyr and Trp), 0.05 mM Amplex Red and 1 U/mL of HRP. It should be noted that the concentrations of Amplex Red and HRP used here are in excess such that the conversion of H2O2 to Resorufin product occurs instantaneously and non-rate limiting. Reactions were allowed to proceed for 120 minutes followed by fluorescence readout on a Spectramax with the following set parameters: 544 nm excitation/590 nm emission, 570 nm cutoff (EnVision is an alternative reader). Dose-response curves were generated by plotting percent effect (% product conversion; Y-axis) vs. Log10 compound concentrations (X-axis). EC50 values were calculated using a non-linear regression, four-parameters sigmoidal dose-response model and are shown in Table 16.

Q: For `CC(=O)NC1CCc2ccc(Cn3c(=O)[nH]c4ccccc43)cc21` (single isomer, unassigned) [Example 45, N-(6-((2-oxo-2,3-dihydro-1H-benzo[d]imidazol-1-yl)methyl)-2,3-dihydro-1H-inden-1-yl)acetamide], which EC50 is on record?
A: 21 nM

Q: How did the EC50 turn out when `CNC(=O)C1CCc2cc(Cn3c(=O)[nH]c4ccccc43)ccc21` (single isomer, unassigned) [Example 46, N-methyl-5-((2-oxo-2,3-dihydro-1H-benzo[d]imidazol-1-yl)methyl)-2,3-dihydro-1H-indene-1-carboxamide] was run?
A: 9 nM

Q: For `O=c1[nH]c2ccccc2n1Cc1ccc(Cn2nncc2CO)cc1` (single isomer, unassigned) [Example 81, 1-(4-((5-(hydroxymethyl)-1H-1,2,3-triazol-1-yl)methyl)benzyl)-1,3-dihydro-2H-benzo[d]imidazol-2-one], which EC50 is on record?
A: 10 nM

Q: Which EC50 does the source give for `O=C1CCCN1Cc1ccc(Cn2c(=O)[nH]c3ccc(F)cc32)cc1` (single isomer, unassigned) [Example 84, 6-fluoro-1-(4-((2-oxopyrrolidin-1-yl)methyl)benzyl)-1,3-dihydro-2H-benzo[d]imidazol-2-one] here?
A: 10 nM

Q: For `O=C1CCCN1Cc1ccc(Cn2c(=O)[nH]c3cc(F)ccc32)cc1` (single isomer, unassigned) [Example 85, 5-fluoro-1-(4-((2-oxopyrrolidin-1-yl)methyl)benzyl)-1,3-dihydro-2H-benzo[d]imidazol-2-one], which EC50 is on record?
A: 389 nM

Q: Which EC50 does the source give for `Cc1ccc(C2CC2Cn2c(=O)[nH]c3ccccc32)nc1` (single isomer, unassigned) [Example 111, 1-((2-(5-methylpyridin-2-yl)cyclopropyl)methyl)-1,3-dihydro-2H-benzo[d]imidazol-2-one] here?
A: 4 nM

Q: `O=C1CCCN1Cc1ccc(Cn2c(=O)[nH]c3ccccc32)cc1` [Example 1, 1-(4-((2-oxopyrrolidin-1-yl)methyl)benzyl)-1,3-dihydro-2H-benzo[d]imidazol-2-one] was tested. Which EC50 did it give?
A: 13 nM

Q: How did the EC50 turn out when `O=C1C=CCN1Cc1ccc(Cn2c(=O)[nH]c3ccccc32)cc1` [Example 2, 1-(4-((2-oxo-2,5-dihydro-1H-pyrrol-1-yl)methyl)benzyl)-1,3-dihydro-2H-benzo[d]imidazol-2-one] was run?
A: 13 nM

Q: Which EC50 does the source give for `O=c1[nH]c2ccccc2n1Cc1ccc(Cc2nnco2)cc1` [Example 3, 1-(4-((1,3,4-oxadiazol-2-yl)methyl)benzyl)-1,3-dihydro-2H-benzo[d]imidazol-2-one] here?
A: 53 nM

Q: Which EC50 does the source give for `O=c1[nH]c2ccccc2n1Cc1ccc(Cc2nnco2)c(Cl)c1` [Example 4, 1-(4-((1,3,4-oxadiazol-2-yl)methyl)-3-chlorobenzyl)-1,3-dihydro-2H-benzo[d]imidazol-2-one] here?
A: 6 nM

Q: How did the EC50 turn out when `COc1cc(CNC(C)=O)ccc1Cn1c(=O)[nH]c2ccccc21` [Example 5, N-(3-methoxy-4-((2-oxo-2,3-dihydro-1H-benzo[d]imidazol-1-yl)methyl)benzyl)acetamide] was run?
A: 15 nM

Q: With `CS(=O)(=O)NCc1ccc(Cn2c(=O)[nH]c3ccccc32)s1` [Example 6, N-((5-((2-oxo-2,3-dihydro-1H-benzo[d]imidazol-1-yl)methyl)thiophen-2-yl)methyl)methanesulfonamide] as the compound, how does the EC50 read?
A: 6 nM

Q: `COc1cc(Cn2c(=O)[nH]c3ccccc32)ccc1CNC(C)=O` [Example 7, N-({2-methoxy-4-[(2-oxo-2,3-dihydro-1H-benzimidazol-1-yl)methyl]phenyl}methyl)acetamide] was tested. Which EC50 did it give?
A: 8 nM

Q: Which EC50 does the source give for `O=C1CCCN1Cc1ccc(Cn2c(=O)[nH]c3ccccc32)c(F)c1` [Example 8, 1-({2-fluoro-4-[(2-oxopyrrolidin-1-yl)methyl]phenyl}methyl)-1,3-dihydro-2H-benzimidazol-2-one] here?
A: 11 nM

Q: With `O=C1CCCN1Cc1ccc(Cn2c(=O)[nH]c3ccccc32)cc1F` [Example 9, 1-({3-fluoro-4-[(2-oxopyrrolidin-1-yl)methyl]phenyl}methyl)-1,3-dihydro-2H-benzimidazol-2-one] as the compound, how does the EC50 read?
A: 16 nM

Q: With `O=C1NCc2ccc(Cn3c(=O)[nH]c4ccccc43)cc21` [Example 10, 1-[(3-oxo-2,3-dihydro-1H-isoindol-5-yl)methyl]-1,3-dihydro-2H-benzimidazol-2-one] as the compound, how does the EC50 read?
A: 22 nM

Q: Which EC50 does the source give for `CC(=O)NCc1ccc(Cn2c(=O)[nH]c3ccccc32)cc1` [Example 11, N-(4-((2-oxo-2,3-dihydro-1H-benzo[d]imidazol-1-yl)methyl)benzyl)acetamide] here?
A: 6 nM

Q: `CS(=O)(=O)NCc1ccc(Cn2c(=O)[nH]c3ccccc32)cc1` [Example 12, N-(4-((2-oxo-2,3-dihydro-1H-benzo[d]imidazol-1-yl)methyl)benzyl)methanesulfonamide] was tested. Which EC50 did it give?
A: 8 nM

Q: For `CNC(=O)c1csc(Cn2c(=O)[nH]c3ccccc32)c1` [Example 13, N-methyl-5-((2-oxo-2,3-dihydro-1H-benzo[d]imidazol-1-yl)methyl)thiophene-3-carboxamide], which EC50 is on record?
A: 6 nM

Q: `O=C(NC1CC1)c1ccc(Cn2c(=O)[nH]c3ccccc32)s1` [Example 14] was tested. Which EC50 did it give?
A: 2 nM

Q: How did the EC50 turn out when `CC(=O)N[C@H](C)c1ccc(Cn2c(=O)[nH]c3ccccc32)cc1` [Example 15, (R)—N-(1-(4-((2-oxo-2,3-dihydro-1H-benzo[d]imidazol-1-yl)methyl)phenyl)ethyl)acetamide] was run?
A: 19 nM

Q: How did the EC50 turn out when `CC[C@@H](NC(C)=O)c1ccc(Cn2c(=O)[nH]c3ccccc32)cc1` [Example 16, (R)-N-(1-(4-((2-oxo-2,3-dihydro-1H-benzo[d]imidazol-1-yl)methyl)phenyl)propyl)acetamide] was run?
A: 24 nM

Q: For `CNC(=O)c1cc(Cn2c(=O)[nH]c3ccccc32)ccc1OC` [Example 17, 2-methoxy-N-methyl-5-((2-oxo-2,3-dihydro-1H-benzo[d]imidazol-1-yl)methyl)benzamide], which EC50 is on record?
A: 12 nM

Q: How did the EC50 turn out when `O=C1CCCN1Cc1ccc(Cn2c(=O)[nH]c3ccccc32)cc1Cl` [Example 18, 1-(3-chloro-4-((2-oxopyrrolidin-1-yl)methyl)benzyl)-1,3-dihydro-2H-benzo[d]imidazol-2-one] was run?
A: 8 nM

Q: With `O=C1CCCN1Cc1ccc(Cn2c(=O)[nH]c3ccccc32)cc1I` [Example 19, 1-(3-iodo-4-((2-oxopyrrolidin-1-yl)methyl)benzyl)-1,3-dihydro-2H-benzo[d]imidazol-2-one] as the compound, how does the EC50 read?
A: 14 nM

Q: How did the EC50 turn out when `O=c1[nH]c2ccccc2n1Cc1ccc(CN2CCOCS2(=O)=O)cc1` [Example 20, 1-(4-((3,3-dioxido-1,3,4-oxathiazinan-4-yl)methyl)benzyl)-1,3-dihydro-2H-benzo[d]imidazol-2-one] was run?
A: 7 nM

Q: With `CN(Cc1ccc(Cn2c(=O)[nH]c3ccccc32)cc1)S(C)(=O)=O` [Example 21, N-methyl-N-({4-[(2-oxo-2,3-dihydro-1H-benzimidazol-1-yl)methyl]phenyl}methyl) methanesulfonamide] as the compound, how does the EC50 read?
A: 8 nM

Q: For `O=C1CC2(CC2)CN1Cc1ccc(Cn2c(=O)[nH]c3ccccc32)cc1` [Example 22, 1-({4-[(6-oxo-5-azaspiro[2.4]heptan-5-yl)methyl]phenyl}methyl)-1,3-dihydro-2H-benzimidazol-2-one], which EC50 is on record?
A: 8 nM

Q: How did the EC50 turn out when `O=C1CCCN1Cc1c(F)cc(Cn2c(=O)[nH]c3ccccc32)cc1F` [Example 23, 1-({3,5-difluoro-4-[(2-oxopyrrolidin-1-yl)methyl]phenyl}methyl)-1,3-dihydro-2H-benzimidazol-2-one] was run?
A: 18 nM
